Reference: patent publication US9145424B2, “Treatment of amyotrophic lateral sclerosis” (Northwestern University, priority 2008, dated 2015)
Each block holds one compound with its values, some of them ahead of it.

Experiments:
[1] = system: proteasome activity (Ubi-YFP degradation); assay: Proteasome activity assay (Ubi-YFP in HeLa cells); assay type: cell-based; conditions: 25 μM compound, 1 μM MG132
Experimental: FIG. 7. Arylsulfanyl pyrazolones prevent MG132-induced accumulation of Ubi-YFP. HeLa cells were co-transfected with Ubi-YFP and CMV-CFP plasmids, treated with 1 μM MG132 and 25 μM arylsulfanyl pyrazolones and Ubi-YFP fluorescence intensity normalized to CFP.
Since the CMB-003299 cytotoxicity of SOD1 protein aggregates may involve inhibition of proteasome activity, compounds that stimulate proteasome activity could reverse or prevent mutant SOD1-induced cytotoxicity. Thus, active compounds were tested for the ability to stimulate proteasome activity using a cell line expressing ubiquitin-conjugated YFP [Ubi-YFP 74]. In these cells, increased proteasome activity causes increased degradation of Ubi-YFP and decreased YFP fluorescence. Conversely, compounds that inhibit proteasome activity increase accumulation of Ubi-YFP and enhanced YFP fluorescence. As expected, MG132 augments YFP fluorescence intensity ˜3-fold compared to untreated controls (FIG. 7). […] Protein aggregates are present in the absence of MG132 and aggregation is suppressed following treatment with a provided compound.
HeLa cells (20,000/chamber) were plated on 8 chambered Tissue-tek coverglass pretreated with 1 mg/ml poly-D-lysine and allowed to adhere for 18 h at 37° C./5% CO2. Cells were transfected with 0.2 μg each CMV-CFP and Ubi-YFP plasmids using Lipofectamine 2000 according to manufacturer's instructions. Cells were allowed to express CFP and Ubi-YFP for 18 h followed by a 6 h incubation with test compounds (25 μM). MG132 (1 μM) was added for a final 18 h incubation and Ubi-YFP degradation assessed by fluorescence microscopy. Fluorescence intensity of CFP and YFP was calculated on a cell-by-cell basis from captured images using AxioVision software (Zeiss). YFP fluorescence was normalized to CFP fluorescence.

[2] = system: PC12 cells that express mutant G93A SOD1; assay: Mutant SOD1-induced cytotoxicity protection assay
Experimental: This idea was tested by examining the sensitivity of PC12 cells to SOD1 aggregates in the presence and absence of proteasome inhibitor MG132. PC12 cells expressing no SOD1, wild type SOD1, G85R SOD1 or G93A SOD1 were grown with or without MG132 (FIG. 1).
PC12 cells expressing G93A SOD1 were treated with 100 nM MG132 with or without co-treatment with geldanamycin or radicicol.

human HSP70 promoter = assay: Activation of cellular heat shock response (HeLa hse-luc luciferase reporter); assay type: cell-based; conditions: 8 h
Experimental: FIG. 6. Arylsulfanyl pyrazolones fail to induce heat shock response in Hsp 70 promoter assays. HeLa hse-luc cells were treated with arylsulfanyl pyrazolones (1 μM-100 μM), celestrol (1 μM-5 μM), or CdCl2 (10 μM-100 μM), for 8 h and activation of the heat shock response determined by HSP70 promoter activity.
(§1) Mechanism of action studies have been initiated for provided compounds. provided compounds active in the cytotoxicity protection assay were initially assayed for the ability to prevent SOD1 aggregation using manual, low-throughput methods. […] The ability of provided compounds to induce expression of molecular chaperones was also tested using stably-transfected HeLa cells (HeLa hse-luc) expressing a luciferase reporter gene under the control of the human HSP70 promoter. This HeLa hse-luc reporter system was used previously to identify small-molecule activators of the heat shock response (Westerheide et al. J. Biol. Chem. 2004, 279(53), 56053-56060).
HeLa cells, stably transfected with a luciferase reporter plasmid under control of the HSP70 promoter, were plated in a 96 well plate at a density of 7500 cells/100 μl. […] Cells were lysed by the addition of 100 μl BrightGlo reagent (Promega) according to manufacturer's instructions and luciferase activity measured by quantifying luminescence signal. […]

[3] = In vitro microsomal stability, mouse; assay type: in vitro ADME; conditions: Mouse; for microsomal CLint: mouse, liver microsomes, read-out: CLint (microsomal intrinsic clearance)
Experimental: (§2) Metabolism (microsome, S9 fraction, CYP450): Liver Cytochrome P450 (CYP450) enzymes are the major route for xenobiotic metabolism and microsomal and hepatocyte stability is the best predictor of pharmacokinetic half-life. Cross-species comparisons of metabolism in liver microsomes can predict potential issues with liver toxicity in humans. Selected active compounds are tested in liver microsomes from efficacy species (mouse), toxicity species (rat, dog, monkey), and humans for metabolic stability.
(§3) CMB-087229 was sent for an evaluation of its in vitro ADME properties.
(§4) Two possible amines, secondary and tertiary AAP analogues, were initially screened in the protection assay (FIG. 30) and for in vitro microsomal stability (Table 1) and Caco-2 permeability (Table 2). […] The solubilities of 2 and 3 were good in aqueous media (≧150 μM), and no precipitation occurred at the highest concentration. The in vitro plasma half-life for both compounds was >60 min.

[4] = In vitro plasma stability; assay type: in vitro ADME
Experimental: Plasma stability: Plasma stability of active compounds is assessed in efficacy species (mouse), toxicity species (rat, dog, monkey), and human cells.

Caco-2 = assay: In vitro Caco-2 permeability; assay type: in vitro ADME
Experimental: General Permeability: High membrane permeability is required for effective GI absorption and optimal bioavailability. Passive permeability is typically assessed in the PAMPA artificial membrane assay (Kansy et al., J. Med. Chem. 2002, 45(8), 1712-1722). Cell-based permeability determinations using the Caco-2 cell assay are more resource intensive but more predictive of active transport or efflux in vivo (Artursson et al., Adv. Drug. Deliv. Rev. 2001, 46(1-3), 27-43). Caco-2 assays are performed as needed during SAR development.

Aqueous solubility = assay type: physicochemical; conditions: no precipitation at the highest concentration
Experimental: Solubility: Because compounds are stored in DMSO, it is necessary to determine aqueous solubility of initial hit compounds and their analogs. High solubility in aqueous solution is necessary for high GI absorption, bioavailability, and for chemical formulation. Compounds should be soluble in aqueous solution at >10 μg/ml. Solubility of >50 μg/ml is preferred.

[5] = In vitro microsomal stability, human; assay type: in vitro ADME; conditions: Human
Experimental: as §2, §3, §4

cortical neurons = assay: Cortical neuron assay; assay type: cell-based
Experimental: Selected compounds were tested with cortical neurons—a useful preliminary step prior to the expensive and time-consuming ALS mouse model studies. Although long linker compound 24 and cyclic linker compound 27 are active in the PC12 assay, they are not active with cortical neurons. Compound 3 gave better results than the ether counterpart (1), recovering 100% neuronal activity at 10 μM concentration.

[6] = system: PC12 cells expressing G93A mutant SOD1; assay: Mutant SOD1 protein aggregation; assay type: cell-based; conditions: MG132-treated cells
Experimental: (§5) In PC12 cells that express wild-type SOD1, SOD1 was diffusely localized throughout the cell (Matsumoto et al., J. Cell. Biol. 2005, 171(1), 75-85). […] Therefore, these effects are likely to be due to MG132-induced proteasome inhibition, and not due to an off-target effect of MG132.
The identification of a positive control is a crucial step in assay development. Thus, PC12 cells expressing G85R or G93A mutant SOD1 were treated with MG132 to induce protein aggregation, and then co-treated with candidate chemical suppressors of protein aggregation. Two compounds with similar activity were identified in these experiments: geldanamycin and radicicol. Both compounds induce heat shock transcription factor […], which in turn induces the heat shock response (FIG. 4).
as §1, with “This HeLa hse-luc reporter system was used previously to identify small-molecule activators of the heat shock response (Westerheide et al. J. Biol. Chem. 2004, 279(53), 56053-56060).” left out

[7] = system: PC12 cells expressing G85R SOD1; assay: Mutant SOD1 protein aggregation assay; assay type: cell-based
Excerpt: Compounds that are active in the above assay could theoretically protect against mutant SOD1-induced cytotoxicity through a number of mechanisms, including the following: 1) compounds could nonspecifically block or reverse protein aggregation via chaperone induction, as observed for radicicol and geldanamycin; 2) compounds could block or reverse the aggregation of a specific aggregated protein form; 3) compounds could interfere with an event downstream of protein aggregation that plays a critical role in mutant SOD1-induced cytotoxicity (e.g., proteasome function); and 4) compounds could act directly on SOD1 in a manner that prevents mutant SOD1 aggregation. These possibilities were tested using an assay that directly measures protein aggregation. In addition, unlike the high throughput cytotoxicity protection assay, the protein aggregation assay is based on G85R SOD1; this broadens the scope of the screening strategy, and should eliminate compounds with highly specific activity (i.e., G93A SOD1 limited) against protein aggregation.
as §5
The identification of a positive control is a crucial step in assay development. Thus, PC12 cells expressing G85R or G93A mutant SOD1 were treated with MG132 to induce protein aggregation, and then co-treated with candidate chemical suppressors of protein aggregation. […]
To allow this assay to be used in a high-throughput manner, a Cellomics Arrayscan® high content microscopy system was used for screening and quantification. […]
Arrayscan images were recorded using a 20× objective and the XF93-TRITC filter set in channel 1 for the Image-iT WGA plasma membrane dye or the XF93-FITC filter set for SOD1-YFP and analyzed using Cellomics spot detector software. […] Data were recorded as spot count (aggregate)/object (cell).

Structure (SMILES): Cc1cc(SCc2cc(=O)[nH][nH]2)c(C)cc1Cl [CMB-003299]
effect on MG132-induced Ubi-YFP fluorescence [1]: strongly inhibit
EC50 ([2]; Rattus norvegicus, PC-12, read-out: Best EC50, PC12 G93A SOD1 cells, MG132, calcein-AM viability): 400 nM

Structure (SMILES): [Cl][Cd][Cl] [CdCl2]
luciferase activity (HSP70 promoter) (human HSP70 promoter): strongly induced luciferase activity

T1/2 ([3]; NADPH-absent): 1.67 h
T1/2 ([3]; NADPH-dependent): 0.5 h
microsomal CLint ([3]; NADPH-absent): 23 µL/min/mg
microsomal CLint ([3]; NADPH-dependent): 78 µL/min/mg
in vitro plasma half-life [4]: > 1 h
Efflux ratio (B→A)/(A→B) (Caco-2): 47.1
Papp (A→B) (Caco-2): 0.6 10^−6 cm/s
Papp (B→A) (Caco-2): 28.1 10^−6 cm/s
solubility in aqueous media (Aqueous solubility): ≥ 150 µM
T1/2 ([5]; NADPH-absent): >3 h
T1/2 ([5]; NADPH-dependent): 1.58 h
microsomal CLint ([5]; liver microsomes, NADPH-dependent, read-out: CLint (microsomal intrinsic clearance)): 24 µL/min/mg
Structure (SMILES): O=c1cc(CNc2cc(Cl)cc(Cl)c2)[nH][nH]1 [Compound 2, 5-((3,5-Dichlorophenylamino)methyl)-1H-pyrazol-3(2H)-one, reference compound]

T1/2 ([3]; NADPH-absent): >3 h
T1/2 ([3]; NADPH-dependent): 0.417 h
microsomal CLint ([3]; NADPH-dependent): 93 µL/min/mg
in vitro plasma half-life [4]: > 1 h
Efflux ratio (B→A)/(A→B) (Caco-2): 3.5
Papp (A→B) (Caco-2): 2.2 10^−6 cm/s
Papp (B→A) (Caco-2): 7.6 10^−6 cm/s
solubility in aqueous media (Aqueous solubility): ≥ 150 µM
T1/2 ([5]; NADPH-absent): >3 h
T1/2 ([5]; NADPH-dependent): >3 h
Structure (SMILES): CN(Cc1cc(=O)[nH][nH]1)c1cc(Cl)cc(Cl)c1 [Compound 3, 5-(((3,5-Dichlorophenyl)(methyl)amino)methyl)-1H-pyrazol-3(2H)-one]
neuronal activity recovered (cortical neurons; 10 μM): 100%

Structure (SMILES): CN(CCCc1cc(=O)[nH][nH]1)c1cc(Cl)cc(Cl)c1 [Compound 24, 5-(3-((3,5-Dichlorophenyl)(methyl)amino)propyl)-1H-pyrazol-3(2H)-one]
activity with cortical neurons, in words (cortical neurons): not active
activity in the cytotoxicity protection assay, in words [2]: active

Structure (SMILES): O=c1[nH][nH]c2c1CN(c1cc(Cl)cc(Cl)c1)CC2 [Compound 27, 5-(3,5-Dichlorophenyl)-4,5,6,7-tetrahydro-1H-pyrazolo[4,3-c]pyridin-3(2H)-one]
activity with cortical neurons, in words (cortical neurons): not active
activity in the cytotoxicity protection assay, in words [2]: active

Structure (SMILES): C[C@@H]1C[C@H]2O[C@@H]2/C=C\C=C\C(=O)Cc2c(Cl)c(O)cc(O)c2C(=O)O1 [Radicicol, reference compound]
effect on protein aggregation, in words [6]: reduced formation of protein aggregates
proportion of cells with aggregates ([7]; G85R or G93A mutant SOD1 cells, MG132 plus co-treatment, 75% without): 25%
effect on protein aggregation, in words ([7]; MG132-induced aggregation): decreases mutant SOD1 aggregation
efficacy (maximum viability at optimum dosage) ([2]; rat, 48 h): 80%

Structure (SMILES): CC1=C(O)C(=O)C=C2C1=CC=C1[C@@]2(C)CC[C@@]2(C)[C@@H]3C[C@](C)(C(=O)O)CC[C@]3(C)CC[C@]12C [celastrol, celestrol]
luciferase activity (HSP70 promoter) (human HSP70 promoter): strongly induced luciferase activity
